Reference: US20190381017A1, “Compositions Comprising Serdexmethylphenidate Conjugates And Methods Of Use Thereof” (KemPharm, Inc., priority 2018, published 2019)

How the values were obtained:
[1] = test system: healthy, nondependent, recreational stimulant users with intranasal insufflation experience; experiment: Treatment-emergent adverse events, intranasal study (Example 5, Table 54)
Method: The study consisted of a Screening Period, an in-clinic Drug Discrimination Phase, a Treatment Phase, and a Follow-Up Visit.
All subjects were required to fast for at least 8 hours prior to each dose of study drug until approximately 4 hours after each dose. Abuse potential measures and pharmacokinetic samples were collected at different times after the administration of study drug. Subjects who successfully completed the Drug Discrimination Phase and who qualified for the Treatment Phase remained as inpatients to enter the Treatment Phase.

[2] = test system: healthy, nondependent, recreational stimulant users; experiment: Oral abuse potential, VAS pharmacodynamic scores (Example 4); details: for Drug Liking Emax (mean) / Drug Liking Emax (median) / Feeling Alert/Drowsy Emax (mean) / Feeling Alert/Drowsy Emax (median) / Overall Drug Liking Emax (mean) / Overall Drug Liking Emax (median) / Take Drug Again Emax (mean) / Take Drug Again Emax (median): bipolar VAS; for Any Effects Emax (mean) / Any Effects Emax (median) / Bad Effects Emax (mean) / Bad Effects Emax (median) / Feeling High Emax (mean) / Feeling High Emax (median) / Good Effects Emax (mean) / Good Effects Emax (median): unipolar VAS
[3] = test system: healthy, nondependent, recreational stimulant users with intranasal insufflation experience; experiment: Intranasal abuse potential, VAS pharmacodynamic scores (Example 5); format: in vivo, human; details: SDX Cl 80 mg
Method: Subjects who successfully completed the Screening Period returned to the clinic to complete the Drug Discrimination Phase. The Drug Discrimination Test was performed to ensure that subjects can differentiate between the effects of a single dose of d-methylphenidate hydrochloride and placebo, administered intranasally. Subjects who successfully completed the Drug Discrimination Phase remained as inpatients to enter the Treatment Phase. The Drug Discrimination Phase was a double-blind, intranasal, single-dose, 2-treatment, 2-period, 2-sequence, randomized, crossover design.
The placebo dose consisted of 80 mg of microcrystalline cellulose to create the same volume.
On dosing days in the Treatment Phase, blood samples were collected for the measurement of the plasma concentrations of SDX, d-methylphenidate (d-MPH), l-methylphenidate (l-MPH) and ritalinic acid at predose and at 0.25, 0.5, 0.75, 1, 1.5, 2, 3, 4, 5, 6, 7, 8, 9, 10, 12, 16, 24, 36, and 48 hours±5 minutes after each dose of study drug. […] All VAS pharmacodynamic assessments except Take Drug Again and Overall Drug Liking were performed at 0.25, 0.5, 0.75, 1, 1.5, 2, 3, 4, 5, 6, 7, 8, 10, 12, 24 hours±5 minutes postdose. In addition, predose assessments of Feeling High, and Drowsiness/Alertness were collected. The Take Drug Again and Overall Drug Liking VAS assessments were performed at 12 and 24 hours±5 minutes postdose.

[4] = d-MPH HCl 40 mg (N = 46), SDX Cl 80 mg (N = 46)
[5] = SDX Cl 120 mg, Focalin XR 80 mg, phentermine HCl 60 mg
[6] = d-MPH HCl 40 mg, 12 hours, bipolar VAS
[7] = d-MPH HCl 40 mg, 24 hours, bipolar VAS

COC(=O)[C@H](c1ccccc1)[C@H]1CCCCN1C(=O)OC[n+]1cccc(C(=O)N[C@@H](CO)C(=O)O)c1.[Cl-] [serdexmethylphenidate chloride]
nasal discomfort, nasal congestion, rhinorrhoea, epistaxis, increased lacrimation, frequency vs intranasal d-MPH HCl ([1]; SDX Cl 80 mg vs d-MPH HCl 40 mg): occurred more often | TEAE: Back pain [1, 4]: 0 n (%) [E] | TEAE: Blood pressure diastolic increased [1, 4]: 0 n (%) [E] | TEAE: Bruxism [1, 4]: 0 n (%) [E] | TEAE: Change in sustained attention [1, 4]: 0 n (%) [E] | TEAE: Chest discomfort [1, 4]: 0 n (%) [E] | TEAE: Decreased appetite [1, 4]: 0 n (%) [E] | TEAE: Defaecation urgency [1, 4]: 0 n (%) [E] | TEAE: Dry mouth [1, 4]: 0 n (%) [E] | TEAE: Dry throat [1, 4]: 0 n (%) [E] | TEAE: Dysmenorrhoea (menstrual cramps) [1, 4]: 0 n (%) [E] | TEAE: Dyspepsia [1, 4]: 0 n (%) [E] | TEAE: Energy increased [1, 4]: 0 n (%) [E] | TEAE: Eye irritation [1, 4]: 0 n (%) [E] | TEAE: Feeling hot [1, 4]: 0 n (%) [E] | TEAE: Flushing [1, 4]: 0 n (%) [E] | TEAE: Haematoma [1, 4]: 0 n (%) [E] | TEAE: Hypopnoea (shallow breathing) [1, 4]: 0 n (%) [E] | TEAE: Infections and infestations [1, 4]: 0 n (%) [E] | TEAE: Investigations [1, 4]: 0 n (%) [E] | TEAE: Metabolism and nutrition disorders [1, 4]: 0 n (%) [E] | TEAE: Muscle tightness [1, 4]: 0 n (%) [E] | TEAE: Muscle twitching [1, 4]: 0 n (%) [E] | TEAE: Neck pain [1, 4]: 0 n (%) [E] | TEAE: Obsessive-compulsive disorder [1, 4]: 0 n (%) [E] | TEAE: Peripheral swelling [1, 4]: 0 n (%) [E] | TEAE: Pharyngeal hypoaesthesia (numbness of throat) [1, 4]: 0 n (%) [E] | TEAE: Pharyngitis [1, 4]: 0 n (%) [E] | TEAE: Phlebitis superficial [1, 4]: 0 n (%) [E] | TEAE: Phonophobia (fear of loud noises) [1, 4]: 0 n (%) [E] | TEAE: Photophobia [1, 4]: 0 n (%) [E] | TEAE: Pyrexia [1, 4]: 0 n (%) [E] | TEAE: Reproductive system and breast disorders [1, 4]: 0 n (%) [E] | TEAE: Restlessness [1, 4]: 0 n (%) [E] | TEAE: Sinus tachycardia [1, 4]: 0 n (%) [E] | TEAE: Tachycardia [1, 4]: 0 n (%) [E] | TEAE: Testis discomfort [1, 4]: 0 n (%) [E] | TEAE: Vascular disorders [1, 4]: 0 n (%) [E] | TEAE: Ventricular extrasystoles [1, 4]: 0 n (%) [E] | TEAE: Vessel puncture site bruise [1, 4]: 0 n (%) [E] | TEAE: Vessel puncture site pain [1, 4]: 0 n (%) [E] | TEAE: Visual impairment [1, 4]: 0 n (%) [E] | TEAE: Vomiting [1, 4]: 0 n (%) [E] | Mean difference Bad Effects Emax vs placebo ([2]; SDX Cl 120 mg, Focalin XR 80 mg): 1.3 | Mean difference Any Effects Emax vs placebo [2, 5]: 11.0 | Mean difference Drug Liking Emax vs placebo [2, 5]: 6.8 | Mean difference Feeling Alert/Drowsy Emax vs placebo [2, 5]: 7.7 | Mean difference Feeling High Emax vs placebo [2, 5]: 10.4 | Mean difference Good Effects Emax vs placebo [2, 5]: 12.1 | Mean difference Overall Drug Liking Emax vs placebo [2, 5]: 3.8 | Mean difference Take Drug Again Emax vs placebo [2, 5]: 2.2 | Drug Liking Emax (mean) [2, 5]: 62.8 | Drug Liking Emax (median) [2, 5]: 53.0 | Feeling Alert/Drowsy Emax (mean) [2, 5]: 64.4 | Feeling Alert/Drowsy Emax (median) [2, 5]: 54.0 | Overall Drug Liking Emax (mean) [2, 5]: 58.5 | Overall Drug Liking Emax (median) [2, 5]: 50.0 | Take Drug Again Emax (mean) [2, 5]: 57.4 | Take Drug Again Emax (median) [2, 5]: 50.0 | Any Effects Emax (mean) [2, 5]: 28.8 | Any Effects Emax (median) [2, 5]: 14.0 | Bad Effects Emax (mean) [2, 5]: 6.04 | Bad Effects Emax (median) [2, 5]: 0.0 | Feeling High Emax (mean) [2, 5]: 25.6 | Feeling High Emax (median) [2, 5]: 7.0 | Good Effects Emax (mean) [2, 5]: 27.0 | Good Effects Emax (median) [2, 5]: 10.0 | Mean difference Any Effects Emax vs placebo ([2]; SDX Cl 240 mg): 20.5 | Mean difference Bad Effects Emax vs placebo ([2]; SDX Cl 240 mg): 8.6 | Mean difference Drug Liking Emax vs placebo ([2]; SDX Cl 240 mg): 8.3 | Mean difference Feeling Alert/Drowsy Emax vs placebo ([2]; SDX Cl 240 mg): 11.2 | Mean difference Feeling High Emax vs placebo ([2]; SDX Cl 240 mg): 18.8 | Mean difference Good Effects Emax vs placebo ([2]; SDX Cl 240 mg): 17.4 | Mean difference Overall Drug Liking Emax vs placebo ([2]; SDX Cl 240 mg): 3.3 | Mean difference Take Drug Again Emax vs placebo ([2]; SDX Cl 240 mg): 1.7 | Drug Liking Emax (mean) ([2]; SDX Cl 240 mg): 63.8 | Drug Liking Emax (median) ([2]; SDX Cl 240 mg): 59.0 | Feeling Alert/Drowsy Emax (mean) ([2]; SDX Cl 240 mg): 67.4 | Feeling Alert/Drowsy Emax (median) ([2]; SDX Cl 240 mg): 64.0 | Overall Drug Liking Emax (mean) ([2]; SDX Cl 240 mg): 58.0 | Overall Drug Liking Emax (median) ([2]; SDX Cl 240 mg): 51.0 | Take Drug Again Emax (mean) ([2]; SDX Cl 240 mg): 56.9 | Take Drug Again Emax (median) ([2]; SDX Cl 240 mg): 50.0 | Any Effects Emax (mean) ([2]; SDX Cl 240 mg): 37.0 | Any Effects Emax (median) ([2]; SDX Cl 240 mg): 23.0 | Bad Effects Emax (mean) ([2]; SDX Cl 240 mg): 13.4 | Bad Effects Emax (median) ([2]; SDX Cl 240 mg): 0.0 | Feeling High Emax (mean) ([2]; SDX Cl 240 mg): 32.1 | Feeling High Emax (median) ([2]; SDX Cl 240 mg): 19.0 | Good Effects Emax (mean) ([2]; SDX Cl 240 mg): 30.8 | Good Effects Emax (median) ([2]; SDX Cl 240 mg): 15.0 | Mean difference Drug Liking Emax vs placebo [3]: 19.9 | Mean difference Overall Drug Liking vs placebo, 12 hours [3]: 10.3 | Mean difference Overall Drug Liking vs placebo, Emax [3]: 11.5 | Mean difference Any Effect Emax vs placebo ([3]; d-MPH HCl 40 mg): 48.8 | Mean difference Ease of Nasal Insufflation Emax vs placebo ([3]; d-MPH HCl 40 mg): 59.0 | Mean difference Feeling Drowsy/Alert Emax vs placebo ([3]; d-MPH HCl 40 mg): 20.1 | Mean difference Feeling High Emax vs placebo ([3]; d-MPH HCl 40 mg): 40.7 | Mean difference Good Effects Emax vs placebo ([3]; d-MPH HCl 40 mg): 44.2 | Mean difference Overall Drug Liking vs placebo, 24 hours ([3]; d-MPH HCl 40 mg): 8.8 | Mean difference Take Drug Again vs placebo, 12 hours ([3]; d-MPH HCl 40 mg): 7.6 | Mean difference Take Drug Again vs placebo, 24 hours ([3]; d-MPH HCl 40 mg): 6.7 | Mean difference Take Drug Again vs placebo, Emax ([3]; d-MPH HCl 40 mg): 10.8 | Median difference Bad Effects Emax vs placebo ([3]; d-MPH HCl 40 mg): 9.5 | Mean Overall Drug Liking [3, 6]: 60.4 | Mean Take Drug Again [3, 6]: 56.7 | Median Overall Drug Liking [3, 6]: 58 | Median Take Drug Again [3, 6]: 51 | Mean Overall Drug Liking [3, 7]: 59.0 | Mean Take Drug Again [3, 7]: 55.8 | Median Overall Drug Liking [3, 7]: 55 | Median Take Drug Again [3, 7]: 50 | Drug Liking Emax (mean) ([3]; d-MPH HCl 40 mg, bipolar VAS): 71.0 | Drug Liking Emax (median) ([3]; d-MPH HCl 40 mg, bipolar VAS): 71 | Feeling Drowsy/Alert Emax (mean) ([3]; d-MPH HCl 40 mg, bipolar VAS): 71.2 | Feeling Drowsy/Alert Emax (median) ([3]; d-MPH HCl 40 mg, bipolar VAS): 71 | Overall Drug Liking Emax (mean) ([3]; d-MPH HCl 40 mg, bipolar VAS): 61.8 | Overall Drug Liking Emax (median) ([3]; d-MPH HCl 40 mg, bipolar VAS): 58 | Take Drug Again Emax (mean) ([3]; d-MPH HCl 40 mg, bipolar VAS): 60.0 | Take Drug Again Emax (median) ([3]; d-MPH HCl 40 mg, bipolar VAS): 56 | Drug Liking Emax (mean) ([3]; d-MPH HCl 40 mg, bipolar VAS, listed as SDX chloride): 71 | Any Effect Emax (mean) ([3]; d-MPH HCl 40 mg, unipolar VAS): 49.4 | Any Effect Emax (median) ([3]; d-MPH HCl 40 mg, unipolar VAS): 47 | Bad Effects Emax (mean) ([3]; d-MPH HCl 40 mg, unipolar VAS): 14.9 | Bad Effects Emax (median) ([3]; d-MPH HCl 40 mg, unipolar VAS): 1 | Ease of Nasal Insufflation (mean) ([3]; d-MPH HCl 40 mg, unipolar VAS): 65.8 | Ease of Nasal Insufflation (median) ([3]; d-MPH HCl 40 mg, unipolar VAS): 71 | Feeling High Emax (mean) ([3]; d-MPH HCl 40 mg, unipolar VAS): 43.4 | Feeling High Emax (median) ([3]; d-MPH HCl 40 mg, unipolar VAS): 36 | Good Effects Emax (mean) ([3]; d-MPH HCl 40 mg, unipolar VAS): 44.9 | Good Effects Emax (median) ([3]; d-MPH HCl 40 mg, unipolar VAS): 42
